Laboratory results reported in ChEMBL document CHEMBL1201862, “PubChem BioAssay data set” (2004).
Calls of active or inactive are those of the source.

Legend:
[1] = molecular target: T1, Delta-type opioid receptor (Homo sapiens, UniProt P41143); assay: SAR Analysis of Agonists of the DOR Receptor using an Image-Based Assay - Set 3. [Related pubchem assays (depositor defined):AID1777, AID1786]; type: functional
Mu-type opioid receptor [2] = molecular target: T2, Mu-type opioid receptor (Homo sapiens, UniProt P35372); assay: SAR Analysis of Agonists of the MOR Receptor using an Image-Based Assay - Set 3. [Related pubchem assays (depositor defined):AID1777, AID1785, AID1786, AID1966, AID2133, AID2136, AID2284, AID2285, AID2352]; type: functional
T2 sequence (P35372 whole entry): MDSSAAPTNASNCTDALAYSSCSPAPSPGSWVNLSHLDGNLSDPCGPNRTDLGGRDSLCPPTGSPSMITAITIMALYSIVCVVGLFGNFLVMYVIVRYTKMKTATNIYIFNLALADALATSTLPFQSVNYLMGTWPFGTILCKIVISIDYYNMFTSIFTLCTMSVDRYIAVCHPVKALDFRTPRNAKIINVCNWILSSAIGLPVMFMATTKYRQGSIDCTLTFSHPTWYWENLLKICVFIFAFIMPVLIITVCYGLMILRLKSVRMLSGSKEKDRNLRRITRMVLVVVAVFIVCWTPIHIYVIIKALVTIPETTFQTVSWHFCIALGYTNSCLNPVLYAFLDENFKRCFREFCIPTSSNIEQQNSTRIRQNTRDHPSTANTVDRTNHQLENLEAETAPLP

[3] = molecular target: T3, Kappa-type opioid receptor (Homo sapiens, UniProt P41145); assay: KOR agonist analogs, arrestin-GFP redistribution, SAR follow-up, imaging, image-based, set 3 (AID 488833); type: functional
T3 sequence (P41145 whole entry): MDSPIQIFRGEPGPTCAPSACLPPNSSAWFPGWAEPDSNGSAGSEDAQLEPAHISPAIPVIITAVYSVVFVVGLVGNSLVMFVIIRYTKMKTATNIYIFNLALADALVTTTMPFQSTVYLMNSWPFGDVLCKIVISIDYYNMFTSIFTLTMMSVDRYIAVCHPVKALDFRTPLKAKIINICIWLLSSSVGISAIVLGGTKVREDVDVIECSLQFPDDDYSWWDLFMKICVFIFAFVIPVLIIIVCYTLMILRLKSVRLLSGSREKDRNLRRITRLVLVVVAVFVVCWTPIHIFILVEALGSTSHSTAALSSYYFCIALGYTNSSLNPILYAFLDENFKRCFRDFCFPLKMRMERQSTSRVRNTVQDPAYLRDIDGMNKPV

[4] = molecular target: T3, Kappa-type opioid receptor; assay: SAR analysis of small molecule agonists of the kappa opioid receptor via a luminescent beta-arrestin assay - Set 3. [Related pubchem assays (depositor defined):AID1777, AID1785, AID1786, AID1966, AID2133, AID2136, AID2284, AID2500]; type: functional
[5] = molecular target: T4, Histone-lysine N-methyltransferase NSD2 (Homo sapiens, UniProt O96028); type: biochemical
T4 sequence (O96028 whole entry): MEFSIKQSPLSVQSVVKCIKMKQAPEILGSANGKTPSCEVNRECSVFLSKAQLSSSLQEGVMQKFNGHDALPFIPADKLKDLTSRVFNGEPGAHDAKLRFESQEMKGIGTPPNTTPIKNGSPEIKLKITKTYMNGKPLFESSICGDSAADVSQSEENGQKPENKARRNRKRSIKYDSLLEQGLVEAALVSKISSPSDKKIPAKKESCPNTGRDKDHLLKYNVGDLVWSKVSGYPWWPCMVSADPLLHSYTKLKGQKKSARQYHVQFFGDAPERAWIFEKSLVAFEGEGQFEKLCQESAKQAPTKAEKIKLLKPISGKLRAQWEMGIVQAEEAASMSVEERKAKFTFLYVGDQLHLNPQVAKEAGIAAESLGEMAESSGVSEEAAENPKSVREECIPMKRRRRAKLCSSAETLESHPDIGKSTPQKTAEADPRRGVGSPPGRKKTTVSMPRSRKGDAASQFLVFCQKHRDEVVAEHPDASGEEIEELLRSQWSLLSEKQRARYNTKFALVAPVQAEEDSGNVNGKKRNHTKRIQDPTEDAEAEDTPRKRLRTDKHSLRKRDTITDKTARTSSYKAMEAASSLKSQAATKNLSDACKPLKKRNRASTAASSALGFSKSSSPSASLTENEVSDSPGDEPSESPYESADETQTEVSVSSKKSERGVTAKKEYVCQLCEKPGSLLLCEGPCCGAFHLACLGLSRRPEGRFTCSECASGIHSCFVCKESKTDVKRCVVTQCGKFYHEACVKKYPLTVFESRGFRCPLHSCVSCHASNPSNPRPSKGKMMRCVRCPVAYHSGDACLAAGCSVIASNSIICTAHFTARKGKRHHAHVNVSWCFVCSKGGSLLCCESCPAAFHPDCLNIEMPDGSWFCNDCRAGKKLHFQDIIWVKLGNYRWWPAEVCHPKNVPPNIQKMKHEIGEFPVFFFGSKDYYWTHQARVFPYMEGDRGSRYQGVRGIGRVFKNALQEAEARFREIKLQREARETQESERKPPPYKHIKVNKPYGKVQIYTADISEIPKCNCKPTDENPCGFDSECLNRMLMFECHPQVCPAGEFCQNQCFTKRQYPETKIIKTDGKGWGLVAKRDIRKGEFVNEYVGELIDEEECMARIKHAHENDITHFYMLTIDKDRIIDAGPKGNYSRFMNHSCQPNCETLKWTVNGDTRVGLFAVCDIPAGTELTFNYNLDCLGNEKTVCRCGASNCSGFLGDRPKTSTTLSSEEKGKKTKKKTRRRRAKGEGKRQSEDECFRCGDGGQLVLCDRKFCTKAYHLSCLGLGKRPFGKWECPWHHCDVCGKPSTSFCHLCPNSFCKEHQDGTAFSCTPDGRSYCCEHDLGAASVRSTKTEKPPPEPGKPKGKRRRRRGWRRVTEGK

Large T antigen = Large T antigen (Simian virus 40, UniProt P03070); type: functional, Betapolyomavirus macacae;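 also: Confirmatory-stage PubChem screen for compounds that inhibit SV40 T antigen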
Large T antigen, sequence (P03070 whole entry): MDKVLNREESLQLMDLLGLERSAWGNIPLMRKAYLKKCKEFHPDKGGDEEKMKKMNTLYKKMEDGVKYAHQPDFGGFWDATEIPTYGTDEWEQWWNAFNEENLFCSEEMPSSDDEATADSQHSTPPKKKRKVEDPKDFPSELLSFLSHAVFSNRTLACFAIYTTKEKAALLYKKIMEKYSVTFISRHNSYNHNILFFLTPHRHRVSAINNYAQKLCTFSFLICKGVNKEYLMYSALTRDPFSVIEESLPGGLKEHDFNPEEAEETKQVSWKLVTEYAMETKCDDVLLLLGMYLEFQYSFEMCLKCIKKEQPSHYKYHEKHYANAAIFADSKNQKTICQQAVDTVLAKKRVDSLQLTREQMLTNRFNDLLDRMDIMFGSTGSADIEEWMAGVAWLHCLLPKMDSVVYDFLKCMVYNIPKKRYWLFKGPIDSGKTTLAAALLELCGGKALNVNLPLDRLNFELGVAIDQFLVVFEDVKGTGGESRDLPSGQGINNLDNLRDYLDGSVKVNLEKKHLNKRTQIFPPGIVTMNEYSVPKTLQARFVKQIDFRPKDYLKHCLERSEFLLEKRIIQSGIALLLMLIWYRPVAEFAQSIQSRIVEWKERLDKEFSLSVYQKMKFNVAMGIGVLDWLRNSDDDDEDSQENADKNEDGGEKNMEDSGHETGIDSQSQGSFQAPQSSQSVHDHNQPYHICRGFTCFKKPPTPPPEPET

ORF 73 = ORF 73 (Human herpesvirus 8, UniProt O40947); assay: inhibitors of C-LANA binding to LBS DNA, dose response, biochemical, fluorescence polarization, cherry-picked samples (AID 504725); set-up: species or system Human gammaherpesvirus 8;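 also: fluorescence polarization of a labeled DNA duplex reporting LANA DNA binding; potency is for inhibitors that block LANA binding to the DNA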
ORF 73, sequence (O40947 whole entry): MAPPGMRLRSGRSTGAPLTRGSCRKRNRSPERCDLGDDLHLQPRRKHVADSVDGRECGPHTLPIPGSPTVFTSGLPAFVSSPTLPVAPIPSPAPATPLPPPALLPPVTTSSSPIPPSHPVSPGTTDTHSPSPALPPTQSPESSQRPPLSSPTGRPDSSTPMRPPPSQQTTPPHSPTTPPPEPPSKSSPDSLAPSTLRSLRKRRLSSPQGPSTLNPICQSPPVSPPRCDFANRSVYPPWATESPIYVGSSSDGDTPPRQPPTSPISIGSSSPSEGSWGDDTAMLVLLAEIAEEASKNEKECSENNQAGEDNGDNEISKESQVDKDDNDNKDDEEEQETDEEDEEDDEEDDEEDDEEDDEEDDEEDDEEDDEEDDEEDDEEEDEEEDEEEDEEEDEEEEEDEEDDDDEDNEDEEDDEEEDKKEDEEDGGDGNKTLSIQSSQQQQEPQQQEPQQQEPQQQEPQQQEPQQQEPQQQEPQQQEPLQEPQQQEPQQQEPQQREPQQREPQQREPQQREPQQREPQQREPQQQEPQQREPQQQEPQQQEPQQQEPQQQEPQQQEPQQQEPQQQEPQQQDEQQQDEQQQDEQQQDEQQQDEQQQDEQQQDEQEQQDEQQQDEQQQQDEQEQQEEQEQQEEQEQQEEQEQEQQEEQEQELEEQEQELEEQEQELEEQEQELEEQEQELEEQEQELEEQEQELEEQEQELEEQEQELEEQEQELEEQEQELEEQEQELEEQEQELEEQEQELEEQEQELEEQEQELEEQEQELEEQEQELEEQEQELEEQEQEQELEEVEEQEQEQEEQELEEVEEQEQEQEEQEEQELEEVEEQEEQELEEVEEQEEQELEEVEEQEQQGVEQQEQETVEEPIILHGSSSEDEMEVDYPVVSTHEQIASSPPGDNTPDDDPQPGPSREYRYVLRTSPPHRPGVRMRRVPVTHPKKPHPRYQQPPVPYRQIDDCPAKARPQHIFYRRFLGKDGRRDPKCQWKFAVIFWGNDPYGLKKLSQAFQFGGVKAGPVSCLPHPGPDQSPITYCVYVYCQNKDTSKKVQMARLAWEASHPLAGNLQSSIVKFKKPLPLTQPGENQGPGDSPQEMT

[6] = molecular target: T5, Rac GTPase-activating protein 1 (Homo sapiens, UniProt Q9H0H5); assay: MgcRacGAP GTPase-activating activity inhibitors, confirmation, biochemical, ADP Hunter fluorescence, primary and confirmatory (AID 624330); type: functional
T5 sequence (Q9H0H5 whole entry): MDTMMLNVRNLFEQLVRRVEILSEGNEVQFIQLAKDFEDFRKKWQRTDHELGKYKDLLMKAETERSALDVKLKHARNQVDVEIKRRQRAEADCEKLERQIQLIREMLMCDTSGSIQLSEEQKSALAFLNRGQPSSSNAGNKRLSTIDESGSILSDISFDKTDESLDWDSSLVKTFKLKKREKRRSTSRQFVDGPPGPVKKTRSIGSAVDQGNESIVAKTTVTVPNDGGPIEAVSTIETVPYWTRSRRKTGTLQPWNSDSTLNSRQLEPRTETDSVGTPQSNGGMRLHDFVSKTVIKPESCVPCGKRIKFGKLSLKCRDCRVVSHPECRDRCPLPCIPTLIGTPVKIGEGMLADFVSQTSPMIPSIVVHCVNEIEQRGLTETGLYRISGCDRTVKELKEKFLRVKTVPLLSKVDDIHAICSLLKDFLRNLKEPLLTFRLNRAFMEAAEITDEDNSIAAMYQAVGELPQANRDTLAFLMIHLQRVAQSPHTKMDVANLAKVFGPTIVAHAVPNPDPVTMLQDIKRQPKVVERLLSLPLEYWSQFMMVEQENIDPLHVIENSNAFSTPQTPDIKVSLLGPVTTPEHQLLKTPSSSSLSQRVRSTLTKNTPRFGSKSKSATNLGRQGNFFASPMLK

[7] = molecular target: Intestinal-type alkaline phosphatase (Homo sapiens, UniProt P09923); assay: activation of human intestinal alkaline phosphatase – biochemical, dose response (AID 488873); type: functional
Intestinal-type alkaline phosphatase (Homo sapiens, UniProt P09923), sequence (P09923 whole entry): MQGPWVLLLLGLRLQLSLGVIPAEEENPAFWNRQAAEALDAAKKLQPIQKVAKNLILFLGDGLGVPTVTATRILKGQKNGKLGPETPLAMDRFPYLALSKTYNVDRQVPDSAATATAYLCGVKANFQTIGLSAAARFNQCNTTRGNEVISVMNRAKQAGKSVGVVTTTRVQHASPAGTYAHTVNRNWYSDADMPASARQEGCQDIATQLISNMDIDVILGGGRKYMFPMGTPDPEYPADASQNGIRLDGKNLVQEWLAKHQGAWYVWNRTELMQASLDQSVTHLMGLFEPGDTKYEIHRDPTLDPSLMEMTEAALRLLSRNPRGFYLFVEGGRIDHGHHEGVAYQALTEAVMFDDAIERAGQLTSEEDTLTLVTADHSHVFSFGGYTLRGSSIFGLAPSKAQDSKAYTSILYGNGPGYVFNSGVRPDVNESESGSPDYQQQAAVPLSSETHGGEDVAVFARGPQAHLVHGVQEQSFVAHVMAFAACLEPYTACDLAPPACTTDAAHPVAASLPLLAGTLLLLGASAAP

[8] = molecular target: Intestinal-type alkaline phosphatase (Mus musculus, UniProt P24822); assay: mouse intestinal alkaline phosphatase activators, dose response, biochemical, luminescence, uHTS hits (AID 488783); type: functional
Intestinal-type alkaline phosphatase (Mus musculus, UniProt P24822), sequence (P24822 whole entry): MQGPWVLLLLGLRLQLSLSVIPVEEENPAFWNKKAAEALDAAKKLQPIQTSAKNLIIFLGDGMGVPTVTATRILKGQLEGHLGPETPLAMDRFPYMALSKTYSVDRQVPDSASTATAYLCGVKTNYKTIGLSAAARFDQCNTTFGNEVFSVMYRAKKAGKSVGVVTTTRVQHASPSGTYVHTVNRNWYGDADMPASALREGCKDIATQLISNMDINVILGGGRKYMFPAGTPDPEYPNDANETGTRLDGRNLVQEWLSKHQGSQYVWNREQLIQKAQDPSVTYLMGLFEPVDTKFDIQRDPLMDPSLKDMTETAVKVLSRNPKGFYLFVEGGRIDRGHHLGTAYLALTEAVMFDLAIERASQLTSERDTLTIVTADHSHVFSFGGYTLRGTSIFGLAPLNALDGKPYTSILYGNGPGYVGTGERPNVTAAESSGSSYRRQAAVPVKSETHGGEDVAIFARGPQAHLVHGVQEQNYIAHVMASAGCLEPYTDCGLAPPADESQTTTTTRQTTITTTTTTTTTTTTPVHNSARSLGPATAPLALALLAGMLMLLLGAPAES

[9] = molecular target: T6, Alkaline phosphatase, tissue-nonspecific isozyme (Homo sapiens, UniProt P05186); assay: TNAP enzyme activators, dose response, selectivity assay for mouse IAP activator project, biochemical, TNAP isozyme, mouse IAP uHTS hits (AID 488880); type: functional
T6 sequence (P05186 whole entry): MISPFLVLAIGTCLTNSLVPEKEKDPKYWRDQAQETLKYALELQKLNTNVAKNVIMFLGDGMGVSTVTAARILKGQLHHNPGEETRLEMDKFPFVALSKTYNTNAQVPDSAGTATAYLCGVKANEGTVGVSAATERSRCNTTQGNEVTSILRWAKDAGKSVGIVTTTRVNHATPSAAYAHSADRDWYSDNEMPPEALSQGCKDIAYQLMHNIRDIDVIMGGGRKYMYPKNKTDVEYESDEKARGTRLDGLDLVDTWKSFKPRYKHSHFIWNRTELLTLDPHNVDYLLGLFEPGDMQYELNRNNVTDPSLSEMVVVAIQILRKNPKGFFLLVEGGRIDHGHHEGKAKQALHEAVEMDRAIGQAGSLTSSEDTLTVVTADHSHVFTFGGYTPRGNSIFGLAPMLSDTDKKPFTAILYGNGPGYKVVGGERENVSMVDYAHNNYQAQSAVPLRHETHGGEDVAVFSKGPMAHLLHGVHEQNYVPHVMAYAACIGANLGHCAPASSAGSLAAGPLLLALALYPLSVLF

[10] = molecular target: T1, Delta-type opioid receptor; assay: DOR agonists, SAR follow-up, image-based (AID 2370); type: functional
Mu-type opioid receptor [11] = molecular target: T2, Mu-type opioid receptor; assay: MOR agonists by imaging, SAR follow-up, image-based (AID 2352); type: functional
[12] = molecular target: T1, Delta-type opioid receptor; assay: DOR antagonists, SAR follow-up, image-based (AID 2357); type: functional
[13] = molecular target: T3, Kappa-type opioid receptor; assay: KOR antagonists by imaging, SAR follow-up, image-based (AID 2348); type: functional
Mu-type opioid receptor [14] = molecular target: T2, Mu-type opioid receptor; assay: MOR antagonists, SAR follow-up, image-based (AID 2420); type: functional;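 also: compounds added before stimulation of receptor with agonist DAMGO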
[15] = molecular target: T3, Kappa-type opioid receptor; assay: KOR agonist analogs, imaging readout, SAR follow-up, image-based (AID 2359); type: functional
[16] = molecular target: T3, Kappa-type opioid receptor; assay: kappa opioid receptor blockers, cell-based, luminescence, beta-arrestin, SAR follow-up (AID 2285); type: functional

T1 sequence (P41143 whole entry): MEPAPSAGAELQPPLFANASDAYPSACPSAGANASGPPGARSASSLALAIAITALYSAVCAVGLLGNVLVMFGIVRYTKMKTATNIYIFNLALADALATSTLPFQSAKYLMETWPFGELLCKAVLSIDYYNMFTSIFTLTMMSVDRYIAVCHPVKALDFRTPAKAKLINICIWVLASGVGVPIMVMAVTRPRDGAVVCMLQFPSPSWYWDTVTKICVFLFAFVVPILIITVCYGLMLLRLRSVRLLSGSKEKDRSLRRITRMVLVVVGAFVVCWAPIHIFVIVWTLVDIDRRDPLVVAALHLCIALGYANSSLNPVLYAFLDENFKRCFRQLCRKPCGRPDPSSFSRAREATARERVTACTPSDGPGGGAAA

COc1cccc(CSc2nnc(-c3ccccn3)n2Cc2ccco2)c1
inactive: EC50 [1] > 64 µM | EC50 (Mu-type opioid receptor [2]) > 32 µM | EC50 [3] > 32 µM | EC50 [4] 15.3 µM

N=C1/C(=C/c2ccc(O)c(O)c2)C(=O)N=C2SC(CC(=O)N3CCCC3)=NN12
active: AC50 [5] 3.26 µM | IC50 (Large T antigen) 7.22 µM | AC50 (ORF 73) 161 µM | IC50 [6] 66 µM | EC50 [7] 9.7 µM | EC50 [9] 9.2 µM
inactive: EC50 [8] 100 µM

COc1ccc(N2CCN(CCCNC(=O)Cn3c(=O)c4cccn4c4ccccc43)CC2)cc1
inactive: EC50 [10] > 32 µM | EC50 (Mu-type opioid receptor [11]) > 32 µM | IC50 [12] > 32 µM | IC50 [13] 15.3 µM | IC50 (Mu-type opioid receptor [14]) > 32 µM | EC50 [15] > 32 µM
active: IC50 [16] 4.32 µM
